Laboratory results as given in US5447942A, “N-derivatives of (phenylethyl-β-ol) amine, a process for their preparation and pharamaceutical compositions containing the same” (Societe de Conseils de Recherches et d'Applications …, priority 1992, dated 1995).
Like-named read-outs stand apart in the source and are kept apart here. Values belong to the compound of their own block, whether it stands above or below them.

What was measured:
β adrenoceptors = experiment: radioligand binding studies in lung membrane (Table A, binding affinity)
Source text: The results are summarised in Table A. Generally, the activity is better for the trans than the cis isomer.

[1] = test system: acetylcholine induced bronchoconstriction; experiment: inhibition of acetylcholine induced bronchoconstriction, Konzett and Rossler method (Table B); format: in vivo, Male Hartley Guinea Pigs; settings: IV; for inhibition in vivo at 4.6 µmol/kg / inhibition in vivo at 1.5 µmol/kg / inhibition in vivo at 0.42 µmol/kg / inhibition in vivo at 4.18 µmol/kg / inhibition in vivo at 4.8 µmol/kg / inhibition in vivo at 0.47 µmol/kg / inhibition in vivo at 0.13 µmol/kg / inhibition in vivo at 1.6 µmol/kg: Cavia porcellus
Protocol: Male Hartley Guinea Pigs (450-500 g) were anaesthetised with ethyl carbamate and prepared for recording bronchoconstriction according to Konzett and Rossler method (Naunym Schmiedebergers Arch. Exp. Path. Pharmakol (1940) 195, 71). To abolish spontaneous respiration, an injection IV of vecuronium bromide (2 mg/kg) was made. Bronchoconstriction was induced by IV injection of Acetylcholine and the animals received one dose of β agonist compound (IV) 5 minutes later.

α, receptor = experiment: binding α receptor
[2] = test system: isolated aorta contraction induced by phenylephrine; experiment: inhibition of isolated aorta contraction induced by phenylephrine
[3] = 5 min, 0.42 μmol/kg, 5 mn, read-out: bronchoconstriction protection, score 5 mn
[4] = 0.25 h, 0.42 μmol/kg, 15 mn, read-out: bronchoconstriction protection, score 15 mn
[5] = 0.5 h, 0.42 μmol/kg, 30 mn, read-out: bronchoconstriction protection, score 30 mn
[6] = 5 min, 0.13 μmol/kg, 5 mn, read-out: bronchoconstriction protection, score 5 mn
[7] = 0.25 h, 0.13 μmol/kg, 15 mn, read-out: bronchoconstriction protection, score 15 mn
[8] = 0.5 h, 0.13 μmol/kg, 30 mn, read-out: bronchoconstriction protection, score 30 mn
[9] = 5 min, 1.6 μmol/kg, 5 mn, read-out: bronchoconstriction protection, score 5 mn
[10] = 0.25 h, 1.6 μmol/kg, 15 mn, read-out: bronchoconstriction protection, score 15 mn
[11] = 0.5 h, 1.6 μmol/kg, 30 mn, read-out: bronchoconstriction protection, score 30 mn

Ki (β adrenoceptors): 410 nM
Ki (α, receptor): 61 nM
SMILES: COc1cc([C@H]2CC[C@@H](CNCC(O)c3ccc(O)c(CO)c3)O2)cc(OC)c1OC (relative stereo) [Example 2 (cis), 2-(3',4',5'-trimethoxyphenyl)-5-[N-[β-(3'-hydroxymethyl-4'-hydroxy-phenyl)-β-hydroxy-ethyl]-aminomethyl]-tetrahydrofuran]
bronchoconstriction protection, duration of action ([1]; 4.6 μmol/kg): 5 mn
inhibition in vivo at 4.6 µmol/kg ([1]; 5 min, 4.6 μmol/kg, 5 mn, read-out: bronchoconstriction protection, score 5 mn): 20 to 50%
inhibition in vivo at 4.6 µmol/kg ([1]; 0.25 h, 4.6 μmol/kg, 15 mn, read-out: bronchoconstriction protection, score 15 mn): < 20%
inhibition in vivo at 4.6 µmol/kg ([1]; 0.5 h, 4.6 μmol/kg, 30 mn, read-out: bronchoconstriction protection, score 30 mn): < 20%
pA2, inhibitor of isolated aorta contraction induced by phenylephrine [2]: 7.75

Ki (β adrenoceptors): 1900 nM
SMILES: COc1cc([C@H]2CC[C@@H](CCNCC(O)c3ccc(O)c(CO)c3)O2)cc(OC)c1OC (relative stereo) [Example 14 (cis), 2-(3',4',5'-trimethoxyphenyl)-5-[N-[β-(3'-hydroxymethyl-4'-hydroxy-phenyl)-β-hydroxy-ethyl]-aminoethyl]-tetrahydrofuran]
bronchoconstriction protection, duration of action ([1]; 1.5 μmol/kg): 30 mn
inhibition in vivo at 1.5 µmol/kg ([1]; 5 min, 1.5 μmol/kg, 5 mn, read-out: bronchoconstriction protection, score 5 mn): > 75%
inhibition in vivo at 1.5 µmol/kg ([1]; 0.25 h, 1.5 μmol/kg, 15 mn, read-out: bronchoconstriction protection, score 15 mn): 20 to 50%
inhibition in vivo at 1.5 µmol/kg ([1]; 0.5 h, 1.5 μmol/kg, 30 mn, read-out: bronchoconstriction protection, score 30 mn): 20 to 50%

Ki (β adrenoceptors): 760 nM
SMILES: COc1cc([C@H]2CC[C@H](CCCNCC(O)c3ccc(O)c(CO)c3)O2)cc(OC)c1OC (relative stereo) [Example 15 (trans), 2-(3',4',5'-trimethoxyphenyl)-5-[-N-[β-(3'-hydroxymethyl-4'-hydroxy-phenyl)-β-hydroxy-ethyl]-aminopropyl]-tetrahydrofuran]
bronchoconstriction protection, duration of action ([1]; 0.42 μmol/kg): 20 mn
bronchoconstriction protection, duration of action ([1]; 4.18 μmol/kg): > 50 mn
inhibition in vivo at 0.42 µmol/kg [1, 3]: > 75%
inhibition in vivo at 4.18 µmol/kg ([1]; 5 min, 4.18 μmol/kg, 5 mn, read-out: bronchoconstriction protection, score 5 mn): > 75%
inhibition in vivo at 0.42 µmol/kg [1, 4]: 50 to 75%
inhibition in vivo at 4.18 µmol/kg ([1]; 0.25 h, 4.18 μmol/kg, 15 mn, read-out: bronchoconstriction protection, score 15 mn): > 75%
inhibition in vivo at 0.42 µmol/kg [1, 5]: < 20%
inhibition in vivo at 4.18 µmol/kg ([1]; 0.5 h, 4.18 μmol/kg, 30 mn, read-out: bronchoconstriction protection, score 30 mn): 50 to 75%

Ki (β adrenoceptors): 410 nM
SMILES: OCc1cc(C(O)CNCC2CCC(c3ccccc3)O2)ccc1O (stereo not drawn) [Example 1, 2-phenyl-5-[N-[β-(3'-hydroxymethyl-4'-hydroxy-phenyl)-β-hydroxy-ethyl]aminomethyl]-tetrahydrofuran]
bronchoconstriction protection, duration of action ([1]; 4.8 μmol/kg): 0 mn
inhibition in vivo at 4.8 µmol/kg ([1]; 5 min, 4.8 μmol/kg, 5 mn, read-out: bronchoconstriction protection, score 5 mn): < 20%
inhibition in vivo at 4.8 µmol/kg ([1]; 0.25 h, 4.8 μmol/kg, 15 mn, read-out: bronchoconstriction protection, score 15 mn): < 20%
inhibition in vivo at 4.8 µmol/kg ([1]; 0.5 h, 4.8 μmol/kg, 30 mn, read-out: bronchoconstriction protection, score 30 mn): < 20%

Ki (β adrenoceptors): 1800 nM
SMILES: OCc1cc(C(O)CNCC2CCC(c3ccccc3F)O2)ccc1O (stereo not drawn) [Example 6, 2-(2'-fluorophenyl)-5-[N-[β-(3'-hydroxymethyl-4'-hydroxy-phenyl)-β-hydroxy-ethyl]-aminomethyl]-tetrahydrofuran]
bronchoconstriction protection, duration of action ([1]; 0.47 μmol/kg): < 30 mn
inhibition in vivo at 0.47 µmol/kg ([1]; 5 min, 0.47 μmol/kg, 5 mn, read-out: bronchoconstriction protection, score 5 mn): 50 to 75%
inhibition in vivo at 0.47 µmol/kg ([1]; 0.25 h, 0.47 μmol/kg, 15 mn, read-out: bronchoconstriction protection, score 15 mn): 20 to 50%
inhibition in vivo at 0.47 µmol/kg ([1]; 0.5 h, 0.47 μmol/kg, 30 mn, read-out: bronchoconstriction protection, score 30 mn): 20 to 50%

Ki (β adrenoceptors): 350 nM
SMILES: OCc1cc(C(O)CNCC2CCC(c3ccncc3)O2)ccc1O (stereo not drawn) [Example 12, 2-(4'-pyridyl)-5-[N-[β-(3'-hydroxymethyl-4'-hydroxy-phenyl)-β-hydroxy-ethyl]-aminomethyl]-tetrahydrofuran]
bronchoconstriction protection, duration of action ([1]; 0.13 μmol/kg): > 30 mn
bronchoconstriction protection, duration of action ([1]; 0.42 μmol/kg): > 30 mn
inhibition in vivo at 0.13 µmol/kg [1, 6]: 50 to 75%
inhibition in vivo at 0.42 µmol/kg [1, 3]: 50 to 75%
inhibition in vivo at 0.13 µmol/kg [1, 7]: 20 to 50%
inhibition in vivo at 0.42 µmol/kg [1, 4]: 50 to 75%
inhibition in vivo at 0.13 µmol/kg [1, 8]: 20 to 50%
inhibition in vivo at 0.42 µmol/kg [1, 5]: 20 to 50%

Ki (β adrenoceptors): 570 nM
SMILES: OCc1cc(C(O)CNCCCC2CCC(c3ccccc3Cl)O2)ccc1O (stereo not drawn) [Example 16, 2-(2'-chlorophenyl)-5-[N-[β-(3'-hydroxymethyl-4'-hydroxy-phenyl)-β-hydroxy-ethyl]-aminopropyl]-tetrahydrofuran]
bronchoconstriction protection, duration of action ([1]; 1.6 μmol/kg): > 15 mn
inhibition in vivo at 1.6 µmol/kg [1, 9]: 20 to 50%
inhibition in vivo at 1.6 µmol/kg [1, 10]: 20 to 50%
inhibition in vivo at 1.6 µmol/kg [1, 11]: < 20%

Ki (β adrenoceptors): 1600 nM
SMILES: COc1cc(C2CC(CNCC(O)c3ccc(O)c(CO)c3)CO2)cc(OC)c1OC (centres unmarked) [Example 18]
bronchoconstriction protection, duration of action ([1]; 1.6 μmol/kg): 30 mn
inhibition in vivo at 1.6 µmol/kg [1, 9]: 50 to 75%
inhibition in vivo at 1.6 µmol/kg [1, 10]: 20 to 50%
inhibition in vivo at 1.6 µmol/kg [1, 11]: 20 to 50%

Ki (β adrenoceptors): 2500 nM
SMILES: CC(C)(C)NCC(O)c1ccc(O)c(CO)c1 (centres unmarked) [Salbutamol, reference compound]
bronchoconstriction protection, duration of action ([1]; 0.13 μmol/kg): 10 mn
bronchoconstriction protection, duration of action ([1]; 0.42 μmol/kg): 30 mn
inhibition in vivo at 0.13 µmol/kg [1, 6]: > 75%
inhibition in vivo at 0.42 µmol/kg [1, 3]: > 75%
inhibition in vivo at 0.13 µmol/kg [1, 7]: < 20%
inhibition in vivo at 0.42 µmol/kg [1, 4]: > 75%
inhibition in vivo at 0.13 µmol/kg [1, 8]: < 20%
inhibition in vivo at 0.42 µmol/kg [1, 5]: < 20%
